Test system: VEGF
Assay: Hypoxia-inducible endogenous VEGF expression, VEGF ELISA assay
Assay type: cell-based
Details: HeLa cells, hypoxic conditions (1% O2, 5% CO2), VEGF in conditioned media
Experimental: The ability of the compounds of the invention to modulate hypoxia-inducible endogenous VEGF expression may be analyzed as follows. VEGF protein levels may be monitored by an ELISA assay (R&D Systems). Briefly, HeLa cells may be cultured for 24-48 hours under hypoxic conditions (1% O2, 5% CO2, balanced with nitrogen) in the presence or absence of a compound of the invention. The conditioned media may then be assayed by ELISA, and the concentration of VEGF calculated from the standard ELISA curve of each assay.
A dose-response analysis may be performed using the ELISA assay and conditions described above. The conditions for the dose-response ELISA are analogous to those described above. A series of, e.g., seven different concentrations may be analyzed. In parallel, a dose-response cytotoxicity assay may be performed using CellTiter Glo (Promega) under the same conditions as the ELISA to ensure that the inhibition of VEGF expression was not due to the cytotoxicity. Dose-response curves may be plotted using percentage inhibition versus concentration of the compound, and EC50 and CC50 values may be generated for each compound with the maximal inhibition set as 100% and the minimal inhibition as 0%.

| EC50 (Homo sapiens, HeLa) [µM] | EC50 [µM] | SMILES |
| --- | --- | --- |
| < 0.008 |  | COc1ccc(C2c3[nH]c4ccc(Br)cc4c3CC3C(=O)N(c4ccc5c(c4)OCO5)C(=S)N32)cc1 (stereo not shown) [Compound 179] |
| 0.008 to 0.04 |  | CCOCN(C)CCCOc1ccc(C2c3[nH]c4ccc(Br)cc4c3CC3C(=O)N(c4ccc(Cl)cc4)C(=S)N32)cc1 (stereo not shown) [Compound 197] |
| < 0.008 |  | CC(C)N1C(=O)C2Cc3c([nH]c4ccc(Br)cc34)C(c3ccc(OCCCn4cncn4)cc3)N2C1=S (stereo not shown) [Compound 184] |
| < 0.008 |  | CCN1C(=O)C2Cc3c([nH]c4ccc(Br)cc34)C(c3ccc(OCCN4CCOCC4)cc3)N2C1=S (stereo not shown) [Compound 101] |
| < 0.008 |  | CC(C)c1ccc(C2c3[nH]c4ccc(Br)cc4c3CC3C(=O)N(C4CCCCC4)C(=S)N32)cc1 (stereo not shown) [Compound 97] |
| 0.008 to 0.04 |  | CC(C)NCCCOc1ccc(C2c3[nH]c4ccc(Br)cc4c3CC3C(=O)N(c4ccc(Cl)cc4)C(=S)N32)cc1 (stereo not shown) [Compound 194] |
| < 0.008 |  | O=C1C2Cc3c([nH]c4ccc(Cl)cc34)C(c3ccc(OCCN4CCOCC4)cc3)N2C(=S)N1C1CCCCC1 (stereo not shown) [Compound 113] |
| 0.04 to 0.2 |  | COC(=O)CN1C(=O)C2Cc3c([nH]c4ccc(Br)cc34)C(c3ccc(OC)cc3)N2C1=S (stereo not shown) [Compound 136] |
| 0.008 to 0.04 |  | O=C1C2Cc3c([nH]c4ccc(Br)cc34)C(c3ccc(OCCCN4CCCCC4)cc3)N2C(=S)N1c1ccc(Cl)cc1 (stereo not shown) [Compound 190] |
| < 0.008 |  | O=C1C2Cc3c([nH]c4ccc(Br)cc34)C(c3ccc(OCCCCl)cc3)N2C(=S)N1c1ccc(Cl)cc1 (stereo not shown) [Compound 188] |
| < 0.008 |  | CC(C)N1C(=O)C2Cc3c([nH]c4ccc(Br)cc34)C(c3ccc(OCCCN4CCCC4)cc3)N2C1=S (stereo not shown) [Compound 150] |
| < 0.008 |  | COc1ccc(C2c3[nH]c4ccc(Br)cc4c3CC3C(=O)N(c4cccc(OC)c4)C(=S)N32)cc1 (stereo not shown) [Compound 142] |
| < 0.008 |  | COc1ccc(C2c3[nH]c4ccc(Br)cc4c3CC3C(=O)N(c4cccc(C)c4)C(=S)N32)cc1 (stereo not shown) [Compound 170] |
|  | < 0.008 | COCCOc1ccc(C2c3[nH]c4ccc(Br)cc4c3CC3C(=O)N(C4CCCCC4)C(=S)N32)cc1 (stereo not shown) [Compound 117] |
| < 0.008 |  | CCN(CC)CCCOc1ccc(C2c3[nH]c4ccc(Br)cc4c3CC3C(=O)N(C(C)C)C(=S)N32)cc1 (stereo not shown) [Compound 154] |
| 0.008 to 0.04 |  | CC(C)N1C(=O)C2Cc3c([nH]c4ccc(Br)cc34)C(c3ccc(OCCCN4CCOCC4)cc3)N2C1=S (stereo not shown) [Compound 153] |
| < 0.008 |  | CCC(C)N1C(=O)C2Cc3c([nH]c4ccc(Br)cc34)C(c3ccc(C(C)C)cc3)N2C1=S (stereo not shown) [Compound 95] |
| < 0.008 |  | COc1ccc(C2c3[nH]c4ccc(Br)cc4c3CC3C(=O)N(c4cccc(C(F)(F)F)c4)C(=S)N32)cc1 (stereo not shown) [Compound 162] |
| 0.04 to 0.2 |  | COC(=O)N1C(=O)C2Cc3c([nH]c4ccc(Br)cc34)C(c3ccc(OC)cc3)N2C1=S (stereo not shown) [Compound 147] |
| < 0.008 |  | CN(C)CCCOc1ccc(C2c3[nH]c4ccc(Br)cc4c3CC3C(=O)N(C4CCCCC4)C(=S)N32)cc1 (stereo not shown) [Compound 112] |
| 0.04 to 0.2 |  | COc1ccc(C2c3[nH]c4ccc(Br)cc4c3CC3C(=O)N(c4ccc(F)cc4Cl)C(=S)N32)cc1 (stereo not shown) [Compound 174] |
| 0.008 to 0.04 |  | CCN(CC)CCCOc1ccc(C2c3[nH]c4ccc(Br)cc4c3CC3C(=O)N(c4ccc(Cl)cc4)C(=S)N32)cc1 (stereo not shown) [Compound 193] |
| 0.008 to 0.04 |  | CCOC(=O)C(C)N1C(=O)C2Cc3c([nH]c4ccc(Br)cc34)C(c3ccc(OC)cc3)N2C1=S (stereo not shown) [Compound 144] |
| 0.008 to 0.04 |  | COc1ccc(C2c3[nH]c4ccc(Br)cc4c3CC3C(=O)N(c4ccccc4F)C(=S)N32)cc1 (stereo not shown) [Compound 166] |
| < 0.008 |  | COc1ccc(C2c3[nH]c4ccc(Br)cc4c3CC3C(=O)N(c4cccc(Br)c4)C(=S)N32)cc1 (stereo not shown) [Compound 175] |
| < 0.008 |  | CC(C)N1C(=O)C2Cc3c([nH]c4ccc(Br)cc34)C(c3ccc(OCCCN4CCCCC4)cc3)N2C1=S (stereo not shown) [Compound 151] |
| 0.008 to 0.04 |  | CCCN1C(=O)C2Cc3c([nH]c4ccc(Br)cc34)C(c3ccc(OCCN4CCOCC4)cc3)N2C1=S (stereo not shown) [Compound 102] |
| 0.008 to 0.04 |  | CC(C)N1C(=O)C2Cc3c([nH]c4ccc(Br)cc34)C(c3ccc(-c4cncnc4)cc3)N2C1=S (stereo not shown) [Compound 131] |
| 0.04 to 0.2 |  | COc1ccc(C2c3[nH]c4ccc(Br)cc4c3CC3C(=O)N(c4ccccc4C)C(=S)N32)cc1 (stereo not shown) [Compound 169] |
| 0.008 to 0.04 |  | COC(=O)c1ccc(N2C(=O)C3Cc4c([nH]c5ccc(Br)cc45)C(c4ccc(OC)cc4)N3C2=S)cc1 (stereo not shown) [Compound 139] |

Second part, the compound before the results:

| SMILES | EC50 (Homo sapiens, HeLa) [µM] | EC50 [µM] |
| --- | --- | --- |
| COc1ccc(C2c3[nH]c4ccccc4c3CC3C(=O)N(c4ccc(C(C)C)cc4)C(=O)N32)cc1 (stereo not shown) [Compound 35] | 0.2 to 1 |  |
| COc1ccc(C2c3[nH]c4ccccc4c3CC3C(=O)N(C(C)C)C(=S)N32)cc1 (stereo not shown) [Compound 42] | 0.2 to 1 |  |
| COc1cccc(C2c3[nH]c4ccccc4c3CC3C(=O)N(C4CCCCC4)C(=S)N32)c1 (racemic) [Compound 2] | > 1 |  |
| COc1ccc(C2c3[nH]c4ccc(C)cc4c3CC3C(=O)N(C4CCCCC4)C(=O)N32)cc1 (stereo not shown) [Compound 45] | 0.2 to 1 |  |
| COc1ccccc1C1c2[nH]c3ccccc3c2CC2C(=O)N(c3ccccc3)C(=S)N21 (stereo not shown) [Compound 88] | > 1 |  |
| CN1C(=O)C2Cc3c([nH]c4ccccc34)C(c3ccc(Cl)c(Cl)c3)N2C1=S (stereo not shown) [Compound 53] | > 1 |  |
| COc1cccc(C2c3[nH]c4ccccc4c3CC3C(=O)N(C4CC4)C(=S)N32)c1 (stereo not shown) [Compound 6] | > 1 |  |
| CCN1C(=O)C2Cc3c([nH]c4ccccc34)C(c3ccc(OC)cc3)N2C1=O (stereo not shown) [Compound 66] | > 1 |  |
| COc1cccc(C2c3[nH]c4ccc(Br)cc4c3CC3C(=O)N(C4CC4)C(=S)N32)c1 (stereo not shown) [Compound 16] |  | < 0.008 |
| COc1ccc(C2c3[nH]c4ccccc4c3CC3C(=O)N(C4CCCCC4)C(=S)N32)cc1 (stereo not shown) [Compound 41] |  | 0.2 to 1 |
| O=C1C2Cc3c([nH]c4ccccc34)C(c3cccc(Cl)c3)N2C(=S)N1c1cccc(F)c1 (stereo not shown) [Compound 39] | 0.2 to 1 |  |
| COc1ccc(C2c3[nH]c4ccc(Br)cc4c3CC3C(=O)N(c4ccc([N+](=O)[O-])cc4)C(=S)N32)cc1 (stereo not shown) [Compound 176] | < 0.008 |  |
| O=C1C2Cc3c([nH]c4ccccc34)C(C3CCCCC3)N2C(=S)N1C1CC1 (stereo not shown) [Compound 5] |  | > 1 |
| C=CCN1C(=O)C2Cc3c([nH]c4ccccc34)C(c3ccccc3OC)N2C1=S (stereo not shown) [Compound 85] |  | > 1 |
| COc1ccc(C2c3[nH]c4ccccc4c3CC3C(=O)N(c4ccccc4)C(=O)N32)cc1 (stereo not shown) [Compound 50] | > 1 |  |
| O=C1C2Cc3c([nH]c4ccc(Br)cc34)C(C3CCCCC3)N2C(=S)N1C1CCCCC1 (stereo not shown) [Compound 30] | 0.04 to 0.2 |  |
| COc1ccccc1C1c2[nH]c3ccccc3c2CC2C(=O)N(c3ccc(C)cc3)C(=S)N21 (stereo not shown) [Compound 91] | > 1 |  |
| COc1cccc(C2c3[nH]c4ccc(Br)cc4c3CC3C(=O)N(C4CCCCC4)C(=S)N32)c1 (stereo not shown) [Compound 28] | 0.008 to 0.04 |  |
| COc1ccc(C2c3[nH]c4ccc(Br)cc4c3CC3C(=O)N(C4CCCCC4)C(=S)N32)cc1 (stereo not shown) [Compound 27] |  | < 0.008 |
| O=C1C2Cc3c([nH]c4ccccc34)C(c3ccccc3)N2C(=S)N1C1CCCCC1 (stereo not shown) [Compound 56] | > 1 |  |
| CCN1C(=O)C2Cc3c([nH]c4ccc(Br)cc34)C(c3ccc(OC)cc3)N2C1=O (stereo not shown) [Compound 55] | > 1 |  |
| COc1ccccc1C1c2[nH]c3ccccc3c2CC2C(=O)N(C3CCCCC3)C(=S)N21 (stereo not shown) [Compound 87] | > 1 |  |

Reference: US8940896B2, “Tetra-cyclic carboline derivatives useful in the inhibition of angiogenesis” (PTC Therapeutics, Inc., priority 2004, dated 2015)
